Measured values published in patent publication EP4285905A1, “CABERGOLINE OR A PHARMACEUTICALLY ACCEPTABLE SALT OR SOLVATE THEREOF, FOR USE IN PREVENTION OR DELAY OF POST-PREGNANCY BREAST CANCER IN A FEMALE MAMMAL” (Consejo Superior de Investigaciones Cientificas, priority 2022, dated 2023).

How the values were obtained:
[1] = test system: K14Cre; Brca1^F/F; P53^F/F; test: Tumour latency and tumour incidence in the Brca1/P53 deficient mouse model; type: in vivo, mice
From the text: The study model used was a genetically modified mouse, generated by the group led by Jos Jinkers from the Netherland Cancer Institute and generously donated to our group. It is a conditional double knock-out (KO) for Brca1 and P53 that expresses Cre-recombinase under the promoter of the cytokeratin-14 gene (K14) as a model named: K14Cre; Brca1^F/F; P53^F/F (hereinafter Brca1 or KO). These mice develop mammary tumours (cancers) with a penetrance of 100% (although it depends on whether they develop skin cancer first and must be sacrificed) and a median age of 7 months. They mimic human tumours with BRCA1 mutations, since they are basal-type and lose P53. Since Cre-recombinase under the promoter of the K14 gene is not only expressed in mammary cells, but also in other epithelial cells, these mice develop squamous cell carcinoma-like skin tumors. The cohort of mice used in this study has an FVB/N genetic background. […]

Brca1/P53-deficient mice = test: Indirect estimation of recombinant P53 cells by qPCR of the WT allele (longitudinal cohort); type: in vivo; conditions: tumour-free mammary glands
Procedure: In order to obtain a suspension enriched in mouse mammary epithelial cells, from which we can obtain both RNA and proteins and also maintain acceptable viability, the protocol for obtaining mouse mammary organoids was carried out. Once the mammary glands were removed after performing the necropsy of the mouse, they were mechanically disintegrated by cutting with two scalpels. Subsequently, they were incubated in a volume of 10 mL of supplemented medium (DMEM/F12 (50%/50%), 5% fetal bovine serum, 1% penicillin/streptomycin) plus 1.25 mL of collagenase, and 1 mL of trypsin. This enzymatic digestion was carried out for 30 minutes at 37 °C in orbital agitation at 100 revolutions per minute (rpm) (= 1.666 s^-1). […]
DNA was extracted from frozen organoids obtained from mammary glands at 30 and 60 days of involution, and from tumour-free mammary glands of mice that developed breast cancer over time. The quantity and quality of DNA were quantified using a spectrophotometer (Nanodrop). Subsequently, this DNA was used to determine the recombination frequency of the P53 gene in the breasts of the different groups by Quantitative Polymerase Chain Reaction (qPCR). […]
For each sample, qPCR reactions against P53 and Tfrc were performed in parallel and in triplicate. […] The qPCR reactions and the reading of the signal were performed in the Mastercycler epgradient S Realplex2 thermal cycler from Eppendor. […]

Question: What does the source list for `C=CCN1C[C@H](C(=O)N(CCCN(C)C)C(=O)NCC)C[C@@H]2c3cccc4[nH]cc(c34)C[C@H]21` [cabergoline, 1-[(6-allylergolin-8ß-yl)-carbonyl]-1-[3-(dimethylamino)propyl]-3-ethylurea]?
Answer: tumour latency ([1]; single intraperitoneal dose 0.25 mg/Kg at weaning after second lactation, vs pregnancy and lactation group P = 0.019, non-lactation pregnancy group P < 0.0001, nulliparous P < 0.0001): greater latency; tumour incidence ([1]; single intraperitoneal dose 0.25 mg/Kg at weaning, 10 mice out of 37 developed tumour, vs lactating multiparous mice P = 0.0062): 27.78%; WT allele (proportion of WT cells) over time (Brca1/P53-deficient mice): increase in WT cells was observed over time
